{"source": "patent EP0060077A1", "about": "“Beta-lactam antibiotics, their preparation and use” (BEECHAM GROUP PLC, priority 1981, dated 1982)", "key": {"[1]": {"assay": "Tissue stability in mouse kidney homogenate", "type": "in vitro ADME", "conditions": "2% mouse kidney homogenate mixed with equal volume of 200 µg/ml antibiotic, 37°C, HPLC; relative to MM13902 as standard (1.0)", "quoted_text": "(§3) A preparation of 2% mouse kidney homogenate was mixed with equal volumes of a 200 µg/ml solution of the antibiotic to be tested. The stability of the antibiotic at 37°C was studied by removal of aliquots and subjecting them to high pressure liquid chromatographic analysis. The values are given in figures relative to that obtained for MM13902 which is taken as a standard (1.0). Values greater than 1.0 reflect the fold increase in stability relative to MM13902."}, "[2]": {"assay": "Tissue stability in human kidney homogenate (comparable test)", "type": "in vitro ADME", "conditions": "relative to MM13902 as standard (1.0)", "quoted_text": "as §3"}, "B. subtilis A": {"system": "B. subtilis A", "assay": "MIC (Broth)", "type": "cell-based", "conditions": "Bacillus subtilis", "description": "(§1) MIC DATA (Broth) For sodium (5RS,6RS)-3-[(Z)-2-carba- moylethenylthio)-4,4-dimethyl-6-[(1SR)-1-hydroxyethyl]-7-oxo-l-azabicyclo[3.2.0]hept-2-en-2-carboxylate (32)\n(§2) MIC DATA (Broth) for sodium (5RS,6RS)-4,4-dimethyl-6- [(1SR)-1-hydroxyethyl]-3-(pyrimidin-2-ylsulphinyl)-7-oxo-1-azabicyclo[3.2.0]hept-2-ene-Z-carboxylate (27)"}, "C. freundii E8": {"system": "C. freundii E8", "assay": "MIC (Broth)", "type": "cell-based", "conditions": "Citrobacter freundii", "description": "as §1, §2"}, "E. coli ESS": {"system": "E. coli ESS", "assay": "MIC (Broth)", "type": "cell-based", "conditions": "Escherichia coli", "description": "as §1, §2"}, "K. aerogenes A": {"system": "K. aerogenes A", "assay": "MIC (Broth)", "type": "cell-based", "conditions": "Klebsiella aerogenes", "description": "as §1, §2"}, "P. mirabilis 977": {"system": "P. mirabilis 977", "assay": "MIC (Broth)", "type": "cell-based", "conditions": "Proteus mirabilis", "description": "as §1, §2"}, "P. morganii 1580": {"system": "P. morganii 1580", "assay": "MIC (Broth)", "type": "cell-based", "conditions": "Morganella morganii", "description": "as §1, §2"}, "P. rettgeri Wm16": {"system": "P. rettgeri Wm16", "assay": "MIC (Broth)", "type": "cell-based", "conditions": "Providencia rettgeri", "description": "as §1, §2"}, "P. vulgaris W091": {"system": "P. vulgaris W091", "assay": "MIC (Broth)", "type": "cell-based", "conditions": "Proteus vulgaris", "description": "as §1, §2"}, "S. aureus 1517": {"system": "S. aureus 1517", "assay": "MIC (Broth)", "type": "cell-based", "conditions": "Staphylococcus aureus", "description": "as §1, §2"}, "S. aureus Oxford": {"system": "S. aureus Oxford", "assay": "MIC (Broth)", "type": "cell-based", "conditions": "Staphylococcus aureus", "description": "as §1, §2"}, "S. aureus Russell": {"system": "S. aureus Russell", "assay": "MIC (Broth)", "type": "cell-based", "conditions": "Staphylococcus aureus", "description": "as §1, §2"}, "S. sonnei MB11 1967": {"system": "S. sonnei MB11 1967", "assay": "MIC (Broth)", "type": "cell-based", "conditions": "Shigella sonnei, MB111967", "description": "as §1, §2"}, "S. typhimurium CT10": {"system": "S. typhimurium CT10", "assay": "MIC (Broth)", "type": "cell-based", "conditions": "Salmonella enterica", "description": "as §1, §2"}, "E. cloacae N1 [T753]": {"system": "E. cloacae N1 [T753]", "assay": "MIC (Broth)", "type": "cell-based", "conditions": "Enterobacter cloacae", "description": "as §2"}, "E. coli 0111 [E8]": {"system": "E. coli 0111 [E8]", "assay": "MIC (Broth)", "type": "cell-based", "conditions": "Escherichia coli", "description": "as §2"}, "E. coli JT 2074": {"system": "E. coli JT 2074", "assay": "MIC (Broth)", "type": "cell-based", "conditions": "Escherichia coli, JT2074", "description": "as §2"}, "E. coli JT39 [E96]": {"system": "E. coli JT39 [E96]", "assay": "MIC (Broth)", "type": "cell-based", "conditions": "Escherichia coli", "description": "as §2"}, "E. coli JT410 C4": {"system": "E. coli JT410 C4", "assay": "MIC (Broth)", "type": "cell-based", "conditions": "Escherichia coli, JT410C4", "description": "as §2"}, "K. aeogenes BA 9J R+": {"system": "K. aeogenes BA 9J R+", "assay": "MIC (Broth)", "type": "cell-based", "description": "as §2"}, "Serratia marcescens US32": {"system": "Serratia marcescens US32", "assay": "MIC (Broth)", "type": "cell-based", "description": "as §2"}, "E. cloacae N1": {"system": "E. cloacae N1", "assay": "MIC (Broth)", "type": "cell-based", "conditions": "Enterobacter cloacae", "description": "as §1"}, "E. cloacae T753": {"system": "E. cloacae T753", "assay": "MIC (Broth)", "type": "cell-based", "conditions": "Enterobacter cloacae", "description": "as §1"}, "E. coli 0111": {"system": "E. coli 0111", "assay": "MIC (Broth)", "type": "cell-based", "conditions": "Escherichia coli", "description": "as §1"}, "E. coli E8": {"system": "E. coli E8", "assay": "MIC (Broth)", "type": "cell-based", "conditions": "Escherichia coli", "description": "as §1"}, "E. coli E96": {"system": "E. coli E96", "assay": "MIC (Broth)", "type": "cell-based", "conditions": "Escherichia coli", "description": "as §1"}, "E. coli JT39": {"system": "E. coli JT39", "assay": "MIC (Broth)", "type": "cell-based", "conditions": "Escherichia coli", "description": "as §1"}, "K. aerogenes Ba95": {"system": "K. aerogenes Ba95", "assay": "MIC (Broth)", "type": "cell-based", "conditions": "Klebsiella aerogenes", "description": "as §1"}, "K. aerogenes T767": {"system": "K. aerogenes T767", "assay": "MIC (Broth)", "type": "cell-based", "conditions": "Klebsiella aerogenes", "description": "as §1"}, "S. aureus MB9": {"system": "S. aureus MB9", "assay": "MIC (Broth)", "type": "cell-based", "conditions": "Staphylococcus aureus", "description": "as §1"}, "S. pneumoniae CN 33": {"system": "S. pneumoniae CN 33", "assay": "MIC (Broth)", "type": "cell-based", "conditions": "Streptococcus pneumoniae, CN33", "description": "as §1"}, "S. pyogenes CN10": {"system": "S. pyogenes CN10", "assay": "MIC (Broth)", "type": "cell-based", "conditions": "Streptococcus pyogenes", "description": "as §1"}}, "note": "Like-named read-outs stand apart in the source and are kept apart here."}
{"smiles": "CC(=O)N/C=C/SC1=C(C(=O)O)N2C(=O)[C@@H]([C@H](C)OS(=O)(=O)O)[C@H]2C1", "note": "[MM13902, reference compound]", "values": [{"measurement": "Relative Stability", "setting": "[1]", "result": 1.4}, {"measurement": "Relative Stability", "setting": "[2]", "result": 1.1}]}
{"smiles": "C[C@H](O)[C@@H]1C(=O)N2C(C(=O)[O-])=C([S+]([O-])c3ncccn3)C(C)(C)[C@@H]12.[Na+]", "note": "(mixture of isomers) [Example 22, Sodium (5RS,6RS)-4,4-dimethyl-6-((1SR)-1-hydroxyethyl]-3-(pyrimidin-2-ylsulphinyl)-7-oxo-1-azabicyclo(3.2.0]hept-2-en-2-carboxylate]", "values": [{"measurement": "MIC", "setting": "B. subtilis A; Broth, B. subtilis A, read-out: MIC", "result": 0.8, "unit": "mg/L"}, {"measurement": "MIC", "setting": "C. freundii E8; Broth, C. freundii E8, read-out: MIC", "result": 25, "unit": "mg/L"}, {"measurement": "MIC", "setting": "E. coli ESS; Broth, E. coli ESS, read-out: MIC", "result": 1.6, "unit": "mg/L"}, {"measurement": "MIC", "setting": "K. aerogenes A; Broth, K. aerogenes A, read-out: MIC", "result": 50, "unit": "mg/L"}, {"measurement": "MIC", "setting": "P. mirabilis 977; Broth, P. mirabilis 977, read-out: MIC", "result": 25, "unit": "mg/L"}, {"measurement": "MIC", "setting": "P. morganii 1580; Broth, P. morganii 1580, read-out: MIC", "result": 25, "unit": "mg/L"}, {"measurement": "MIC", "setting": "P. rettgeri Wm16; Broth, P. rettgeri Wm16, read-out: MIC", "result": 25, "unit": "mg/L"}, {"measurement": "MIC", "setting": "P. vulgaris W091; Broth, P. vulgaris W091, read-out: MIC", "result": 6.2, "unit": "mg/L"}, {"measurement": "MIC", "setting": "S. aureus 1517; Broth, S. aureus 1517, read-out: MIC", "result": 25, "unit": "mg/L"}, {"measurement": "MIC", "setting": "S. aureus Oxford; Broth, S. aureus Oxford, read-out: MIC", "result": 0.8, "unit": "mg/L"}, {"measurement": "MIC", "setting": "S. aureus Russell; Broth, S. aureus Russell, read-out: MIC", "result": 1.6, "unit": "mg/L"}, {"measurement": "MIC", "setting": "S. sonnei MB11 1967; Broth, S. sonnei MB11 1967, read-out: MIC", "result": 50, "unit": "mg/L"}, {"measurement": "MIC", "setting": "S. typhimurium CT10; Broth, S. typhimurium CT10, read-out: MIC", "result": 12.5, "unit": "mg/L"}, {"measurement": "MIC", "setting": "E. cloacae N1 [T753]", "result": 25, "unit": "mg/L"}, {"measurement": "MIC", "setting": "E. coli 0111 [E8]", "result": 25, "unit": "mg/L"}, {"measurement": "MIC", "setting": "E. coli JT 2074", "result": 25, "unit": "mg/L"}, {"measurement": "MIC", "setting": "E. coli JT39 [E96]", "result": 50, "unit": "mg/L"}, {"measurement": "MIC", "setting": "E. coli JT410 C4", "result": 25, "unit": "mg/L"}, {"measurement": "MIC", "setting": "K. aeogenes BA 9J R+", "result": 25, "unit": "mg/L"}, {"measurement": "MIC", "setting": "Serratia marcescens US32", "result": 100, "unit": "mg/L"}]}
{"smiles": "C[C@H](O)[C@@H]1C(=O)N2C(C(=O)[O-])=C(S/C=C\\C(N)=O)C(C)(C)[C@@H]12.[Na+]", "note": "(racemic)", "values": [{"measurement": "MIC", "setting": "B. subtilis A", "result": 1.6, "unit": "mg/L"}, {"measurement": "MIC", "setting": "C. freundii E8; E8", "result": 25, "unit": "mg/L"}, {"measurement": "MIC", "setting": "E. coli ESS", "result": 3.1, "unit": "mg/L"}, {"measurement": "MIC", "setting": "K. aerogenes A", "result": 6.2, "unit": "mg/L"}, {"measurement": "MIC", "setting": "P. mirabilis 977; 977", "result": 25, "unit": "mg/L"}, {"measurement": "MIC", "setting": "P. morganii 1580; 1580", "result": 25, "unit": "mg/L"}, {"measurement": "MIC", "setting": "P. rettgeri Wm16; WM16", "result": 25, "unit": "mg/L"}, {"measurement": "MIC", "setting": "P. vulgaris W091; W091", "result": 25, "unit": "mg/L"}, {"measurement": "MIC", "setting": "S. aureus 1517; 1517", "result": 25, "unit": "mg/L"}, {"measurement": "MIC", "setting": "S. aureus Oxford", "result": 6.2, "unit": "mg/L"}, {"measurement": "MIC", "setting": "S. aureus Russell", "result": 3.1, "unit": "mg/L"}, {"measurement": "MIC", "setting": "S. sonnei MB11 1967", "result": 25, "unit": "mg/L"}, {"measurement": "MIC", "setting": "S. typhimurium CT10; TYPHIMURIUM", "result": 50, "unit": "mg/L"}, {"measurement": "MIC", "setting": "E. cloacae N1", "result": 25, "unit": "mg/L"}, {"measurement": "MIC", "setting": "E. cloacae T753", "result": 100, "unit": "mg/L"}, {"measurement": "MIC", "setting": "E. coli 0111", "result": 50, "unit": "mg/L"}, {"measurement": "MIC", "setting": "E. coli E8", "result": 50, "unit": "mg/L"}, {"measurement": "MIC", "setting": "E. coli E96", "result": 50, "unit": "mg/L"}, {"measurement": "MIC", "setting": "E. coli JT39", "result": 12.5, "unit": "mg/L"}, {"measurement": "MIC", "setting": "K. aerogenes Ba95", "result": 50, "unit": "mg/L"}, {"measurement": "MIC", "setting": "K. aerogenes T767", "result": 50, "unit": "mg/L"}, {"measurement": "MIC", "setting": "S. aureus MB9", "result": 25, "unit": "mg/L"}, {"measurement": "MIC", "setting": "S. pneumoniae CN 33", "result": 50, "unit": "mg/L"}, {"measurement": "MIC", "setting": "S. pyogenes CN10", "result": 6.2, "unit": "mg/L"}, {"measurement": "Relative Stability", "setting": "[1]", "result": 10.8}, {"measurement": "Relative Stability", "setting": "[2]", "result": 6.9}]}
